Reference: the supplement of paper PMC10331698
± gives the standard deviation of the averaged measurements.

Experiments:
Assay in all cases: level (log10 ratio to DMSO vehicle control); higher = higher biomarker level / cell amount than vehicle control
[1] = compound: CN(C(=O)C(F)(F)C(F)(F)C(F)(F)F)[Si](C)(C)C [N-Methyl-N-trimethylsilylheptafluorobutyramide] (in DMSO)
Procedure: (§1)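 BioMAP Diversity Plus panel of 12 human primary cell co-culture systems (3C, 4H, LPS, SAg, BT, BF4T, BE3C, CASM3C, HDF3CGF, KF3CT, MyoF, Mphg). Compounds were added 1 h before stimulation and left for 24 h (MyoF 48 h; BT 72 h for soluble read-outs or 6 d for IgG). Biomarkers were read by ELISA, cytotoxicity by SRB, PBMC viability and proliferation by Alamar Blue. Each well value was divided by the mean of 8 DMSO control wells on the same plate and log10 transformed; duplicate blinded samples were tested at 4 concentrations.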

[2] = compound: CO[Si](C)(CCC(F)(F)C(F)(F)C(F)(F)C(F)(F)C(F)(F)C(F)(F)F)OC [Dimethoxymethyl((perfluorohexyl)ethyl)silane] (in DMSO)
Procedure: as §1

Octafluoroadipic acid = compound: O=C(O)C(F)(F)C(F)(F)C(F)(F)C(F)(F)C(=O)O [Octafluoroadipic acid] (in DMSO)
Procedure: as §1

[3] = compound: O=C(O)C(F)(F)OC(F)(F)C(F)(F)OC(F)(F)C(F)(F)OC(F)(F)C(F)(F)C(F)(F)C(F)(F)F [Perfluoro-3,6,9-trioxatridecanoic acid] (in DMSO); conditions: 6700 nM
Procedure: as §1

[4] = compound: O=C(O)CCC(F)(C(F)(F)F)C(F)(F)F [4,4-bis(Trifluoromethyl)-4-fluoropropanoic acid] (in DMSO)
Procedure: as §1

[5] = compound: O=S(=O)(O)C(F)(F)C(F)(F)OC(F)(F)C(F)(F)F [Perfluoro(2-ethoxyethane)sulfonic acid] (in DMSO)
Procedure: as §1

[6] = compound: OCC(F)(F)OC(F)(F)C(F)(F)OC(F)(F)C(F)(F)OC(F)(F)CO [1H,1H,11H,11H-Perfluorotetraethylene glycol] (in DMSO)
Procedure: as §1

Test System | level (log10) ([1]; 6700 nM) | level (log10) ([1]; 20000 nM) | level (log10) ([1]; 60000 nM) | level (log10) ([2]; 6700 nM) | level (log10) ([2]; 20000 nM) | level (log10) (Octafluoroadipic acid; 6700 nM) | level (log10) (Octafluoroadipic acid; 20000 nM) | level (log10) (Octafluoroadipic acid; 60000 nM) | level (log10) [3] | level (log10) ([4]; 6700 nM) | level (log10) ([4]; 20000 nM) | level (log10) ([4]; 60000 nM) | level (log10) ([5]; 6700 nM) | level (log10) ([5]; 20000 nM) | level (log10) ([5]; 60000 nM) | level (log10) ([6]; 6700 nM) | level (log10) ([6]; 20000 nM) | level (log10) ([6]; 60000 nM)
KF3CT:CD54/ICAM-1 | -0.001 ± 0.0028 | -0.0045 ± 0.0092 | -0.0065 ± 0.013 | -0.0135 ± 0.015 | 0.0145 ± 0.0078 | -0.0045 ± 0.0035 | -0.0105 ± 0.0078 | -0.009 ± 0.018 | 0.019 ± 0.0042 | 0.0055 ± 0.0078 | -0.0085 ± 0.0092 | 0.01 ± 0.0085 | -0.002 ± 0.0099 | -0.0275 ± 0.0064 | -0.0165 ± 0.00071 | -0.016 ± 0.0085 | -0.008 ± 0.02 | -0.006 ± 0.035
KF3CT:CXCL8/IL-8 | 0.001 ± 0.013 | -0.0105 ± 0.00071 | 0.0115 ± 0.022 | -0.016 ± 0.0014 | 0.0035 ± 0.019 | -0.0015 ± 0.015 | 0.0105 ± 0.0092 | 0.012 ± 0.017 | -0.047 ± 0.0042 | -0.023 ± 0.0028 | -0.0105 ± 0.00071 | -0.0115 ± 0.013 | 0.0305 ± 0.016 | 0.0045 ± 0.022 | 0.036 ± 0.016 | -0.0085 ± 0.022 | -0.0255 ± 0.021 | -0.0125 ± 0.011
KF3CT:CXCL9/MIG | -0.0035 ± 0.0092 | -0.0125 ± 0.0092 | 0.003 ± 0.0071 | -0.004 | -0.005 ± 0.0028 | 0.003 ± 0.014 | 0.0075 ± 0.016 | 0.0155 ± 0.0021 | -0.0395 ± 0.042 | 0.01 ± 0.011 | 0.0005 ± 0.0078 | 0.006 ± 0.016 | 0.0105 ± 0.0064 | -0.0015 ± 0.012 | 0.0155 ± 0.0021 | -0.006 ± 0.031 | -0.001 ± 0.013 | -0.013 ± 0.018
KF3CT:CXCL10/IP-10 | -0.0095 ± 0.026 | -0.011 ± 0.021 | -0.0085 ± 0.0021 | -0.0155 ± 0.0064 | -0.008 ± 0.0028 | 0 ± 0.0028 | -0.001 ± 0.0028 | -0.001 ± 0.014 | -0.282 ± 0.12 | -0.0055 ± 0.0021 | -0.0005 ± 0.00071 | -0.0005 ± 0.0064 | 0.0025 ± 0.013 | -0.0075 ± 0.011 | -0.009 | -0.0035 ± 0.018 | -0.0065 ± 0.0064 | -0.027 ± 0.016
KF3CT:IL-1alpha | -0.0155 ± 0.0021 | -0.017 ± 0.0099 | 0.008 ± 0.034 | -0.032 ± 0.024 | -0.0065 ± 0.032 | -0.005 ± 0.013 | -0.0245 ± 0.011 | 0.004 ± 0.02 | -0.041 ± 0.03 | -0.008 ± 0.021 | -0.0105 ± 0.0064 | -0.0345 ± 0.043 | 0.0005 ± 0.0064 | -0.013 ± 0.025 | 0.0045 ± 0.05 | 0.009 ± 0.018 | 0.003 ± 0.037 | 0.029 ± 0.034
KF3CT:MMP-9 | -0.0235 ± 0.005 | -0.0115 ± 0.033 | 0.0055 ± 0.00071 | -0.008 ± 0.0014 | -0.0065 ± 0.016 | -0.0065 ± 0.005 | 0.0085 ± 0.015 | 0.0175 ± 0.015 | -0.278 ± 0.039 | -0.026 ± 0.025 | -0.0195 ± 0.019 | -0.008 ± 0.0085 | 0.009 ± 0.0085 | 0.036 ± 0.016 | 0.0515 ± 0.00071 | 0.0225 ± 0.021 | 0.062 ± 0.03 | 0.0725 ± 0.0078
KF3CT:PAI-I | -0.02 ± 0.025 | -0.004 ± 0.014 | -0.0005 ± 0.0078 | 0.0045 ± 0.0064 | 0.009 ± 0.014 | -0.0135 ± 0.0092 | -0.0135 ± 0.011 | -0.002 ± 0.017 | -0.126 | -0.0035 ± 0.00071 | -0.0165 ± 0.0092 | 0.003 ± 0.0071 | -0.01 | -0.0145 ± 0.0078 | -0.009 ± 0.013 | -0.003 ± 0.02 | -0.0115 ± 0.0064 | -0.033 ± 0.0042
KF3CT:SRB | -0.004 ± 0.0014 | -0.0095 ± 0.015 | -0.003 ± 0.013 | -0.0045 ± 0.0064 | -0.004 ± 0.0028 | -0.0065 ± 0.005 | 0.003 ± 0.013 | 0.001 ± 0.018 | -0.0355 ± 0.0035 | -0.003 ± 0.0042 | 0.004 ± 0.0071 | 0.008 ± 0.0099 | -0.0065 ± 0.00071 | -0.0035 ± 0.0035 | 0.007 ± 0.0099 | -0.003 ± 0.014 | 0.003 ± 0.0071 | -0.012 ± 0.013
KF3CT:TIMP-2 | -0.0315 ± 0.011 | -0.0145 ± 0.0078 | 0.0095 ± 0.035 | -0.004 ± 0.028 | 0.0035 ± 0.011 | -0.001 ± 0.025 | -0.0015 ± 0.005 | 0.0105 ± 0.0092 | -0.172 ± 0.037 | -0.0315 ± 0.039 | -0.0015 ± 0.052 | -0.0125 ± 0.0035 | 0.0035 ± 0.0092 | 0.01 | 0.0155 ± 0.005 | -0.008 ± 0.017 | 0.023 ± 0.0085 | 0.0295 ± 0.0092
KF3CT:uPA | -0.0045 ± 0.019 | 0.0135 ± 0.005 | 0.0115 ± 0.0078 | 0.0015 ± 0.0092 | -0.015 ± 0.0028 | -0.0045 ± 0.039 | -0.0065 ± 0.028 | -0.0055 ± 0.026 | 0.027 ± 0.0057 | 0.001 ± 0.0071 | -0.0145 ± 0.028 | -0.004 ± 0.023 | 0.013 ± 0.011 | 0.006 ± 0.021 | 0.0055 ± 0.022 | 0.005 ± 0.0057 | 0.018 ± 0.0099 | 0.024 ± 0.031
MyoF:CD106/VCAM-1 | -0.0125 ± 0.021 | -0.014 ± 0.024 | -0.017 ± 0.0085 | 0.003 ± 0.0042 | -0.008 ± 0.018 | -0.0235 ± 0.005 | -0.0255 ± 0.022 | -0.0085 ± 0.016 | -0.212 ± 0.048 | -0.0065 ± 0.0078 | -0.0095 ± 0.026 | -0.0045 ± 0.015 | 0.006 ± 0.013 | -0.0095 ± 0.015 | 0.013 ± 0.013 | 0.011 ± 0.0057 | -0.012 ± 0.011 | -0.0985 ± 0.05
MyoF:CXCL8/IL-8 | 0.0005 ± 0.025 | 0.003 ± 0.0042 | 0.009 ± 0.027 | -0.016 ± 0.0014 | 0.0085 ± 0.036 | -0.0025 ± 0.00071 | 0.002 ± 0.041 | 0.0235 ± 0.046 | 0.056 ± 0.0057 | 0.0035 ± 0.0092 | 0.0085 ± 0.0078 | 0.009 ± 0.0099 | 0.0095 ± 0.037 | 0.0225 ± 0.03 | 0.03 ± 0.024 | -0.0185 ± 0.011 | -0.0215 ± 0.00071 | -0.013 ± 0.018
MyoF:Collagen I | 0.0025 ± 0.019 | 0.007 ± 0.023 | 0.01 ± 0.0057 | -0.0075 ± 0.0064 | 0.007 ± 0.0014 | -0.0165 ± 0.018 | -0.021 ± 0.021 | -0.005 ± 0.0042 | -0.598 ± 0.0057 | -0.0045 ± 0.012 | -0.0065 ± 0.0092 | 0.008 ± 0.0028 | 0.016 ± 0.011 | -0.0025 ± 0.015 | 0.039 ± 0.014 | -0.0005 ± 0.026 | 0.001 ± 0.03 | -0.0495 ± 0.016
MyoF:Collagen III | 0.006 ± 0.0028 | 0.007 ± 0.0028 | -0.003 ± 0.0085 | 0.0175 ± 0.019 | -0.011 ± 0.011 | -0.002 ± 0.021 | -0.0085 ± 0.028 | -0.0015 ± 0.035 | -0.894 ± 0.12 | -0.0045 ± 0.011 | -0.0205 ± 0.021 | 0.003 ± 0.02 | -0.0035 ± 0.0092 | -0.005 ± 0.0071 | 0.0105 ± 0.012 | -0.002 | -0.0085 ± 0.011 | -0.0415 ± 0.0078
